From the NIST ThermoML archive (doi:10.1021/je200854k)

Settings: Liquid, Capillary tube (Ostwald / Ubbelohde) method

FCC(F)(F)F [1,1,1,2-tetrafluoroethane]
viscosity [mPa·s]
Settings	1000 kPa	2000 kPa	5000 kPa	10000 kPa	15000 kPa	20000 kPa	25000 kPa	30000 kPa	35000 kPa	40000 kPa
258.15 K	0.3251	–	0.3468	0.3675	0.3885	0.4094	0.4309	0.4502	0.4712	0.4996
278.14 K	0.2536	–	0.2678	0.2859	0.3033	0.3209	0.3381	0.3543	0.3712	0.3885
298.14 K	0.1962	–	0.2108	0.2273	0.2421	0.2567	0.2716	0.2876	0.3017	0.3169
318.13 K	–	0.1549	0.1656	0.1828	0.197	0.2111	0.2254	0.2393	0.2511	0.2647
338.13 K	–	0.1152	0.1288	0.1466	0.1618	0.1754	0.1893	0.2007	–	–

FC(F)(F)CC(F)(F)F [1,1,1,3,3,3-hexafluoropropane]
viscosity [mPa·s]
Settings	1000 kPa	2000 kPa	5000 kPa	10000 kPa	15000 kPa	20000 kPa	25000 kPa	30000 kPa	35000 kPa	40000 kPa
253.15 K	0.5347	–	0.5621	0.5982	0.6363	0.671	0.7092	0.751	0.7898	0.8347
263.16 K	0.4612	–	0.4857	0.5184	0.5511	0.583	0.6154	0.6508	0.6835	0.7189
273.14 K	0.3999	–	0.4237	0.452	0.4821	0.5127	0.5412	0.5699	0.6012	0.6317
283.14 K	0.35	–	0.3722	0.3989	0.4259	0.4534	0.4798	0.5054	0.5325	0.5603
293.14 K	0.3074	–	0.3281	0.3534	0.3789	0.4034	0.4271	0.452	0.4757	0.5014
303.14 K	0.2708	–	0.2906	0.3141	0.3383	0.362	0.3838	0.4053	0.429	0.4513
313.14 K	0.2385	–	0.2585	0.2817	0.3041	0.3268	0.3467	0.3678	0.3897	0.41
323.13 K	0.21	–	0.2306	0.253	0.2742	0.295	0.3155	0.3353	0.3544	0.3744
333.13 K	0.1844	–	0.2046	0.2274	0.2481	0.2683	0.2868	0.3059	0.3248	0.3434
343.13 K	–	0.1669	0.1825	0.2044	0.2255	0.2447	0.2631	0.2805	0.2994	0.3154
353.13 K	–	0.1456	0.1618	0.1858	0.2064	0.2239	0.2427	0.2591	0.2761	0.2925
363.14 K	–	0.1248	0.1432	0.1663	0.1863	0.2051	0.2226	0.2395	0.2555	0.2713
373.14 K	–	0.1074	0.1287	0.1531	0.1718	0.1886	0.2056	0.2222	0.2366	0.2495
